Source: PMC6804135, “Comparative Study of Aryl O-, C-, and S-Mannopyranosides as Potential Adhesion Inhibitors toward Uropathogenic E. coli FimH” (Molecules, 2019)
Where two headings read alike, the source gives them in different places.

Tests used:
E. coli FimH [1] = target: T1, E. coli FimH (Escherichia coli, UniProt Q1R2J4); experiment: SPR kinetic analysis of FimH against immobilized 6-aminohexyl α-D-mannopyranoside (4); type: binding; parameters: The FimH residues 1-158 were isolated from the E. coli strain UTI89; made in house; conditions: for Kd: KD = koff/kon
Procedure: First, the equilibrium dissociation constant (KD) of FimH against immobilized 6-aminohexyl α-D-mannopyranoside (4) was determined. The ligand 6-aminohexyl α-D-mannopyranoside (10 mM in H2O) was immobilized via standard amine carbodiimide coupling chemistry (and blocking with ethanolamine as per the manufacturer’s procedure) to obtain 364 response units (RU) (see sensorgram in SI). The reference channel was treated similarly without ligand. A concentration series of the analyte FimH (1024 to 8 nM in running buffer, 2-fold dilutions) was then injected over the surface (700 s association time; 1200 s dissociation time; 30 μL/min flow rate; 25 °C temperature; running buffer: PBS pH 7.45, 3 mM EDTA supplemented with 0.005% Tween-20; regeneration: 30 s of 10 mM Glycine pH 1.5) and the response was double-referenced by subtracting the reference channel and the response with no FimH (running buffer only). Since equilibrium could not be reached during injection, KD was obtained from the extracted kinetic rate constants (KD = koff / kon) from a non-linear globally fitted 1:1 Langmuir binding isotherm containing a mass transfer constant (tc) and locally fitted refractive index constant (RI) (Biacore T200 evaluation software v1.0, GE Healthcare Life Sciences) of the obtained sensorgrams.

E. coli FimH [2] = target: T1, E. coli FimH; parameters: The FimH residues 1-158 were isolated from the E. coli strain UTI89; made in house; conditions: read-out: Kd (SPR), cited from earlier work
E. coli FimH [3] = target: T1, E. coli FimH; experiment: Previously reported SPR Kd against FimH; type: binding; parameters: The FimH residues 1-158 were isolated from the E. coli strain UTI89; made in house; conditions: 5 versus 7; from Kd values of ref 18
E. coli FimH [4] = target: T1, E. coli FimH; experiment: SPR solution affinity (competition) of ligands for FimH on immobilized 6-aminohexyl α-D-mannopyranoside; type: binding; parameters: The FimH residues 1-158 were isolated from the E. coli strain UTI89; made in house; conditions: for Relative Potency: relative to MeαMan (1) = 1; for ΔG°: from SPR Kd
Excerpt: To this end, we first immobilized 6-aminohexyl α-D-mannopyranoside (4) on the CM5 gold chip using the conventional carbodiimide method to which we allowed FimH to bind with and without our competitive inhibitors (see sensorgram of 4 in the SI). The equilibrium dissociation constant (Kd) of the interaction was then normalized, the data sets are illustrated in Figure 5 and values given in Table 1 (see experimental details). This modification from the previous protocol using 8-aminooctyl α-D-mannoside was found much more practical and reliable given its very high affinity to FimH which made the gold chip regeneration from sample to sample too complicated (very slow koff).
SPR Solution Affinity of Ligands for the E. coli FimH Adhesin
Second, the equilibrium dissociation constants (KD) of FimH against the compounds of interest were determined by measuring the amount of free FimH in a series of concentrations of the compounds of interest at a constant concentration of FimH (close to the Kd of FimH: 6-aminohexyl α-D-mannopyranoside) after equilibrium in solution. A concentration series of the ligand of interest (65536 to 0.5 nM in running buffer, 2-fold dilutions) was equilibrated overnight with analyte FimH (40 nM) and then injected over the previous ligand 6-aminohexyl α-D-mannopyranoside-immobilized surface (300 s association time; 300 s dissociation time; 30 μL/min flow rate; 25 °C temperature; running buffer: 5% DMSO, PBS pH 7.45, 3 mM EDTA supplemented with 0.05% Tween-20; regeneration: 30 s of 10 mM Glycine pH 1.5) and the response was single-referenced by subtracting the reference channel and solvent corrected with a DMSO calibration curve. Since equilibrium could not be reached during injection, the responses (free [FimH], Y-axis) at the end of the injections were normalized with the response from FimH only ([compound of interest] = 0) and then plotted over the compounds of interest concentrations (X-axis).

E. coli FimH [5] = target: T1, E. coli FimH; parameters: The FimH residues 1-158 were isolated from the E. coli strain UTI89; made in house; conditions: read-out: IC50 (SPR); cited from earlier work
E. coli FimH [6] = target: T1, E. coli FimH; conditions: from IC50 values of ref 20

SMILES | Kd (E. coli FimH [4]) [µM] | Relative Potency (E. coli FimH [4]) | ΔG° (E. coli FimH [4]) [kcal/mol] | also measured
NCCCCCCO[C@H]1O[C@H](CO)[C@@H](O)[C@H](O)[C@@H]1O [Compound 4, 6-aminohexyl α-D-mannopyranoside] |  |  |  | Kd (E. coli FimH [1]; KD, fitted constant): 0.0386 µM; Kd (E. coli FimH [1]; Kd, immobilized ligand 4, FimH as analyte, 25 °C, PBS pH 7.45): 0.03858 ± 0.00011 µM; dissociation rate constant (koff) (E. coli FimH [1]; fitted constant (dissociation rate), 1:1 Langmuir with mass transfer): 2,06E-04 1/s; kon (E. coli FimH [1]; read-out: ka): 5340 M⁻¹ s⁻¹; Relative Potency (E. coli FimH [1]; relative to MeαMan (1) = 1, immobilized ligand 4): 12
OCC1OC(OCC=Cc2ccc(-c3ccccc3)cc2)C(O)C(O)C1O (stereo not shown) [Compound 5] | 0.0199 ± 0.00122 | 24 |  | Kd (E. coli FimH [2]): 0.003 µM; fold better Kd than 7 (E. coli FimH [3]): 135 fold
OCC1OC(CC=Cc2ccc(-c3ccccc3)cc2)C(O)C(O)C1O (stereo not shown) [Compound 6] | 0.0114 ± 0.00063 | 42 |  | 
OC[C@H]1O[C@H](OCC#Cc2ccc(-c3ccccc3)cc2)[C@@H](O)[C@@H](O)[C@@H]1O [Compound 7] |  |  |  | Kd (E. coli FimH [2]): 0.405 µM
OCC1OC(SCC=Cc2ccc(-c3ccccc3)cc2)C(O)C(O)C1O [Compound 12, (2E)-3-(1,1’-biphenyl-2-propen-1-yl) 1-thio-α-D-mannopyranoside] | 0.0944 ± 0.0062 | 5 |  | difference in respective Kds between 5 and 12 (E. coli FimH [4]; O-linked 5 versus S-linked 12): about 5 fold
CCCCCCCO[C@H]1O[C@H](CO)[C@@H](O)[C@H](O)[C@@H]1O [HeptylαMan (3), Heptyl α-D-mannopyranoside] | 0.00237 ± 0.0005 | 200 | -11.76 | Kd (E. coli FimH [2]; reported value for the golden standard): 0.005 µM; IC50 (E. coli FimH [5]): 0.16 µM
CO[C@H]1O[C@H](CO)[C@@H](O)[C@H](O)[C@@H]1O [MeαMan (1), Methyl α-D-mannopyranoside] | 0.475 ± 0.0057 | 1 | -8.62 | 
O=[N+]([O-])c1ccc(O[C@H]2O[C@H](CO)[C@@H](O)[C@H](O)[C@@H]2O)cc1 [PNPαMan (2), para-nitrophenyl α-D-mannopyranoside] | 0.00421 ± 0.00072 | 113 | -11.42 | 
CCCCCCCS[C@H]1O[C@H](CO)[C@@H](O)[C@H](O)[C@@H]1O [S-linked heptyl α-D-mannopyranoside] |  |  |  | difference between O- and S-linked heptyl α-D-mannopyranosides (E. coli FimH [6]): 3.4 fold; IC50 (E. coli FimH [5]): 0.547 µM
